Results as given in ChEMBL document CHEMBL1136099, “Heterocyclic thrombin inhibitors. Part 1: design and synthesis of amidino-phenoxy quinoline derivatives” (Bioorg Med Chem Lett, 2003).

Tests used:
Plasminogen = Plasminogen (Homo sapiens, UniProt P00747); assay: Inhibitory activity against plasmin in human plasma
Prothrombin = Prothrombin (Homo sapiens, UniProt P00734); assay: In vitro inhibitory activity against thrombin in human plasma; format: cell-free
Serine protease 1 = Serine protease 1 (Homo sapiens, UniProt P07477); assay: Inhibitory activity against trypsin
[1] = Partition coefficient (logP); format: physicochemical; details: octanol/water
Homo sapiens = organism: Homo sapiens; assay: Effective dose (in vitro) using activated partial thromboplastin time (aPTT); format: functional
Coagulation factor X = Coagulation factor X (Homo sapiens, UniProt P00742); assay: Inhibitory activity against coagulation factor X in human plasma; format: cell-free
Chain of Coagulation factor X (P00742 41-179 limits assumed): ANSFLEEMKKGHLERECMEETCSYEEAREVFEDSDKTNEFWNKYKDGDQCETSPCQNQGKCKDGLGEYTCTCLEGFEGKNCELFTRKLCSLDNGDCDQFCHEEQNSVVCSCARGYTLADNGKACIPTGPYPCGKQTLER
Chain of Coagulation factor X (P00742 235-488 limits assumed): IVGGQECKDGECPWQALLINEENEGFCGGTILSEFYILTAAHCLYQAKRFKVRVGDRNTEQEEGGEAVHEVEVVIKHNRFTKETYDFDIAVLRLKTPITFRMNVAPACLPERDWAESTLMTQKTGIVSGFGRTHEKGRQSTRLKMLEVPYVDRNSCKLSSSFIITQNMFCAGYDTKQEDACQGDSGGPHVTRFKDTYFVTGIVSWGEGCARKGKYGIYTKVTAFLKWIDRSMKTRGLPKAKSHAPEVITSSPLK

Chain of Serine protease 1 (P07477 whole entry): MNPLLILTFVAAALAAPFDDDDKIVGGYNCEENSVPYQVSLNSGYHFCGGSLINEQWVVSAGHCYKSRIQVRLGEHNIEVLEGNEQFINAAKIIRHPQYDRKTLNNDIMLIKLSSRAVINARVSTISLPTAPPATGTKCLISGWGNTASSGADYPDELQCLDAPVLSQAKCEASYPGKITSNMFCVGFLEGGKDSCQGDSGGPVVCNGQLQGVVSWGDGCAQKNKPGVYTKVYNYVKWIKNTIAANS
Chain of Plasminogen (P00747 97-580 limits assumed): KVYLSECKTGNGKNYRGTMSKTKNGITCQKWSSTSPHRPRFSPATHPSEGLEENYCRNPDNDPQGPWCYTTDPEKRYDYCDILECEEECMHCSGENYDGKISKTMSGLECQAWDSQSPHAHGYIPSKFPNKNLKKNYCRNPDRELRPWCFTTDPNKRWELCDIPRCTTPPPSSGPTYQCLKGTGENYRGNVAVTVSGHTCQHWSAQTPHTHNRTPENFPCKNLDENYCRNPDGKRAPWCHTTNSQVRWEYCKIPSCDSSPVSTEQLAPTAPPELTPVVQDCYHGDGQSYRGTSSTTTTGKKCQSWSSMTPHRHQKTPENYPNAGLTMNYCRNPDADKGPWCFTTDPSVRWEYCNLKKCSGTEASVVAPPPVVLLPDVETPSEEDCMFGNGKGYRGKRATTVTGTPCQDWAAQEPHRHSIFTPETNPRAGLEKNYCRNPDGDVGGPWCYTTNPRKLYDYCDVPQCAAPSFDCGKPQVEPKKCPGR
Chain of Plasminogen (P00747 581-810 limits assumed): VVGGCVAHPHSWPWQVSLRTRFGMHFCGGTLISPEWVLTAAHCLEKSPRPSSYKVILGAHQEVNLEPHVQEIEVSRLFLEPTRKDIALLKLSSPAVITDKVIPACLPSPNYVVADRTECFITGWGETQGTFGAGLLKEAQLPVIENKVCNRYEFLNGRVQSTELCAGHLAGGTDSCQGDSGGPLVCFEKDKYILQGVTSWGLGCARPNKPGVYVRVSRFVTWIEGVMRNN

| IC50 (Plasminogen) | IC50 (Prothrombin) | IC50 (Serine protease 1) | logP [1] | SMILES | ED200 (Homo sapiens) | IC50 (Coagulation factor X) |
| --- | --- | --- | --- | --- | --- | --- |
| 12200 nM | 18 nM | 4200 nM | – | Cc1ccc(-c2ccc3c(C)cc(Oc4ccc(C(=N)N)cc4)nc3c2)cc1 | – | – |
| – | 92 nM | – | – | CCOC(=O)Cc1ccc2c(C)cc(Oc3ccc(C(=N)N)cc3)nc2c1 | – | – |
| – | 87 nM | – | – | Cc1cc(Nc2ccc(C(=N)N)cc2)nc2cc(Br)ccc12 | – | – |
| 25000 nM | 600 nM | 8100 nM | – | C/C(=C\C(=O)O)c1ccc2c(C)cc(Oc3ccc(C(=N)N)cc3)nc2c1 | – | – |
| – | 10 nM | – | 1.3 | CCOC(=O)CNC(=O)c1ccc(C)c(-c2ccc3c(C)cc(Oc4ccc(C(=N)N)cc4)nc3c2)c1 | 3.3 µM | – |
| 6400 nM | 16 nM | 6700 nM | – | CCOC(=O)/C=C(\C)c1ccc2c(C)cc(Oc3ccc(C(=N)N)cc3)nc2c1 | – | – |
| – | 8 nM | – | 0.5 | Cc1ccc(C(=O)NCC(=O)O)cc1-c1ccc2c(C)cc(Oc3ccc(C(=N)N)cc3)nc2c1 | 0.9 µM | – |
| – | 10 nM | – | – | CCOC(=O)C(CC)c1ccc2c(C)cc(Oc3ccc(C(=N)N)cc3)nc2c1 (stereo not given) | – | – |
| – | 66 nM | – | – | Cc1cc(Oc2ccc(C(=N)N)cc2)nc2cc(Br)ccc12 | – | – |
| – | 196 nM | – | – | Cc1cc(Sc2ccc(C(=N)N)cc2)nc2cc(Br)ccc12 | – | – |
| 14800 nM | 37 nM | 3500 nM | – | Cc1ccccc1-c1ccc2c(C)cc(Nc3ccc(C(=N)N)cc3)nc2c1 | – | – |

| SMILES | IC50 (Plasminogen) | IC50 (Prothrombin) | IC50 (Serine protease 1) | logP [1] | ED200 (Homo sapiens) | IC50 (Coagulation factor X) |
| --- | --- | --- | --- | --- | --- | --- |
| Cc1ccccc1-c1ccc2c(C)cc(Oc3ccc(C(=N)N)cc3)nc2c1 | 8300 nM | 6 nM | 2900 nM | > 3.5 | 7.9 µM | – |
| CCOC(=O)C(C)(C)c1ccc2c(C)cc(Oc3ccc(C(=N)N)cc3)nc2c1 | 20000 nM | 6 nM | 2400 nM | – | – | – |
| CCOC(=O)C1(c2ccc3c(C)cc(Oc4ccc(C(=N)N)cc4)nc3c2)CCCC1 | 5800 nM | 3 nM | 560 nM | – | – | 1500 nM |
